Where two headings read alike, the source gives them in different places.
Assays:
[1] = biological target: Cys242 in human PIK3CA (157-299) (Homo sapiens (Human), UniProt P42336); experiment: Covalent modification assay using MALDI-TOF MS; assay type: biochemical; details: 4 h reaction time point
Procedure, shortened: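 PIK3CA (157-299), 3.33 or 1 μM in 20 mM HEPES, 150 mM NaCl, 2 mM MgCl2, pH 7.3, was incubated with compound at room temperature in the dark for 15 min, 30 min, 2 h or 4 h. Linear MALDI-TOF read-out; % modification = adduct peak height over summed heights of all protein species.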

pAKT in BT474 cells = experiment: Cell-based pAKT HTRF assay in BT474 cells; details: BT474 cells, 4 hr incubation, read-out: pAKT inhibition IC50 in BT474 cells
Procedure, shortened: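 9-pt curve, top 3 μM, 3-fold steps, 0.25% DMSO; 4 hr compound exposure. Lysis, then HTRF with d2/Eu Cryptate antibody pair, 4–24 h RT. Ex 320 nm, Em 615 nm.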

[2] = 3.33 μM protein target, 1:7.5 protein to compound ratio (compounds 1-852)
[3] = 1 μM protein target, 1:5 protein to compound ratio (compounds 853-1279)

Chain of Cys242 in human PIK3CA (157-299) (P42336 157-299): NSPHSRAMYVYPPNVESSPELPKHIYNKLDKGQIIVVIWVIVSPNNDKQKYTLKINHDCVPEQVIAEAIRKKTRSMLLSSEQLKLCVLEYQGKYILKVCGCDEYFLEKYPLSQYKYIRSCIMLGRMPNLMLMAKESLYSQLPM

| Compound | % of modification [1, 2] | IC50 (pAKT in BT474 cells; Compounds 10-999) [µM] | % of modification [1, 3] | IC50 (pAKT in BT474 cells; Compounds 1000-1279) [µM] | IC50 (pAKT in BT474 cells; Homo sapiens, BT-474, Compounds 10-999) [µM] |
| --- | --- | --- | --- | --- | --- |
| C=CC(=O)N1CCn2nc(-c3nc(-c4cnn(C)c4)c4ccsc4c3-c3c(F)cc(F)cc3OCCO)cc2C1C (centres unmarked) [Compound 538] | A (percent of modification of PIK3CA protein ≥75%) | < 0.1 |  |  |  |
| C=CC(=O)N1CCn2nc(-c3nc(-c4cnc5c(c4)CN(CC(F)F)CC5)c4ccsc4c3-c3c(F)cc(F)cc3OCCOC)cc2C1C (centres unmarked) [Compound 1081] |  |  | A (percent of modification of PIK3CA protein ≥75%) | < 0.1 |  |
| C=CC(=O)N1CCn2nc(-c3nc(-c4cnn(C)c4)c4ccsc4c3-c3c(F)cc(F)cc3OC[C@@H](C)O)cc2[C@H]1C [Compound 753] | A (percent of modification of PIK3CA protein ≥75%) | < 0.1 |  |  |  |
| C=CC(=O)N1CCc2ccc(-c3nc(-c4cnc(N(C)C)nc4)c4ccsc4c3-c3c(F)cc(F)cc3OCCOC)cc2C1 [Compound 1068] |  |  | D (percent of modification <25%) | > 1 |  |
| C=CC(=O)N1Cc2cc(-c3nc(-c4cnn(C(C)C)c4)c4ccsc4c3-c3c(F)cc(F)cc3OC[C@@H](C)O)nn2C[C@H]1C [Compound 726] | A (percent of modification of PIK3CA protein ≥75%) | < 0.1 |  |  |  |
| C=CC(=O)N1CCn2nc(-c3nc(-c4ccc5ncn(C)c5c4)c4ccsc4c3-c3c(F)cc(F)cc3OC[C@@H](C)O)cc2[C@H]1C [Compound 748] | A (percent of modification of PIK3CA protein ≥75%) | < 0.1 |  |  |  |
| C=CC(=O)N1Cc2cc(-c3nc(-c4cnn(C)c4)c4ccsc4c3-c3c(F)cc(F)cc3OCCO)nn2C[C@H]1C [Compound 674] | A (percent of modification of PIK3CA protein ≥75%) | < 0.1 |  |  |  |
| C=CC(=O)N1CCc2ncc(-c3nc(N4CCN(C(C)C)CC4)c4ccsc4c3-c3c(F)cc(F)cc3OC(C)C)cc2C1 [Compound 373] | A (percent of modification of PIK3CA protein ≥75%) | 0.1 to 1 |  |  |  |
| C=CC(=O)N1CCc2ccc(-c3nc(-c4cccc(OCCN(C)C)c4)c4ccsc4c3-c3c(F)cc(F)cc3OCCOC)cc2C1 [Compound 1184] |  |  | A (percent of modification of PIK3CA protein ≥75%) | 0.1 to 1 |  |
| C=CC(=O)N1CCc2ncc(-c3nc(-c4ccc5c(c4)CNC5=O)c4ccsc4c3-c3c(F)cc(F)cc3OCCOC)cc2C1 [Compound 379] | A (percent of modification of PIK3CA protein ≥75%) | < 0.1 |  |  |  |
| C=CC(=O)N1CCn2nc(-c3nc(-c4ccc5c(c4)NC(=O)C5)c4ccsc4c3-c3c(F)cc(F)cc3OCCOC)cc2C1C (centres unmarked) [Compound 989] |  | < 0.1 | A (percent of modification of PIK3CA protein ≥75%) |  |  |
| C=CC(=O)N1CCn2nc(-c3nc(-c4ccc(OC5CN(C)C5)nc4)c4ccsc4c3-c3c(F)cc(F)cc3OCCOC)cc2C1C (centres unmarked) [Compound 1205] |  |  | A (percent of modification of PIK3CA protein ≥75%) | < 0.1 |  |
| C=CC(=O)N1CCc2nc(-c3nc(-c4ccc5c(c4)CCNC5)c4ccsc4c3-c3ccc(F)cc3OCCO)sc2C1 [Compound 130] | A (percent of modification of PIK3CA protein ≥75%) | < 0.1 |  |  |  |
| C=CC(=O)N1CCc2nc(-c3nc(-c4cnn(C5CNC5)c4)c4ccsc4c3-c3ccc(F)cc3OCCOC)sc2C1 [Compound 132, 1-[2-[4-[1-(azetidin-3-yl)pyrazol-4-yl]-7-[4-fluoro-2-(2-methoxyethoxy)phenyl]thieno[3,2-c]pyridin-6-yl]-6,7-dihydro-4H-thiazolo[5,4-c]pyridin-5-yl]prop-2-en-1-one] | A (percent of modification of PIK3CA protein ≥75%) |  |  |  | 0.1 to 1 |
| C=CC(=O)N1C[C@H](C)n2nc(-c3nc(-c4ccc5ncn(C)c5c4)c4ccsc4c3-c3c(F)cc(F)cc3OCCOC)cc2[C@@H]1C [Compound 602] | A (percent of modification of PIK3CA protein ≥75%) | < 0.1 |  |  |  |
| C=CC(=O)N1CCn2nc(-c3nc(-c4cnnc(C)c4)c4ccsc4c3-c3c(F)cc(F)cc3OCCOC)cc2C1C (centres unmarked) [Compound 790] | A (percent of modification of PIK3CA protein ≥75%) | < 0.1 |  |  |  |
| C=CC(=O)N1CCc2ncc(-c3nc(-c4cnc5c(c4)CN(C)CC5(F)F)c4ccsc4c3-c3c(F)cc(F)cc3OCCOC)cc2C1 [Compound 1279] |  |  | A (percent of modification of PIK3CA protein ≥75%) | < 0.1 |  |

| Compound | % of modification [1, 2] | IC50 (pAKT in BT474 cells; Compounds 10-999) [µM] | % of modification [1, 3] | IC50 (pAKT in BT474 cells; Compounds 1000-1279) [µM] | IC50 (pAKT in BT474 cells; Homo sapiens, BT-474, Compounds 10-999) [µM] |
| --- | --- | --- | --- | --- | --- |
| C=CC(=O)N1CCc2nc(-c3nc(-c4cnn(C)c4N)c4ccsc4c3-c3c(F)cc(F)cc3OC(C)C)sc2C1 [Compound 351] | A (percent of modification of PIK3CA protein ≥75%) | 0.1 to 1 |  |  |  |
| C=CC(=O)N1CCn2nc(-c3nc(-c4cnn(C)c4)c4ccsc4c3-c3ccc(F)cc3OCC)cc2C1 [Compound 275] | A (percent of modification of PIK3CA protein ≥75%) | < 0.1 |  |  |  |
| C=CC(=O)N1CCn2nc(-c3nc(-c4ccc5c(c4)c(F)nn5C)c4ccsc4c3-c3c(F)cc(F)cc3OCCOC)cc2[C@H]1C [Compound 1165] |  |  | A (percent of modification of PIK3CA protein ≥75%) | < 0.1 |  |
| C=CC(=O)N1CCn2nc(-c3nc(-c4ccc5c(c4)ncn5C)c4ccsc4c3-c3c(F)cc(F)cc3OCCO)cc2[C@H]1C [Compound 651] | C (25%≤percent of modification <50%) | < 0.1 |  |  |  |
| C=CC(=O)N1Cc2cc(-c3nc(-c4cn(C)cn4)c4ccsc4c3-c3c(F)cc(F)cc3OC(C)C)nn2CC1C (centres unmarked) [Compound 496] | A (percent of modification of PIK3CA protein ≥75%) | < 0.1 |  |  |  |
| C=CC(=O)N1Cc2cc(-c3nc(-c4ccc5c(c4)CCN(C)C5)c4ccsc4c3-c3c(F)cc(F)cc3OC(C)C)nn2C(C)C1 (centres unmarked) [Compound 556] | A (percent of modification of PIK3CA protein ≥75%) | < 0.1 |  |  |  |
| C=CC(=O)N1CCc2ncc(-c3nc(-c4ccc5c(c4)CCN(C)C5)c4ccsc4c3-c3c(F)cc(F)cc3OC)cc2C1 [Compound 425] | A (percent of modification of PIK3CA protein ≥75%) | < 0.1 |  |  |  |
| C=CC(=O)N1CCc2nc(-c3nc(-c4ccc5c(c4)CNC(=O)C5)c4ccsc4c3-c3c(F)cc(F)cc3OCCOC)sc2C1 [Compound 1070] |  |  | A (percent of modification of PIK3CA protein ≥75%) | < 0.1 |  |
| C=CC(=O)N1CCn2nc(-c3nc(-c4ccc5c(cnn5C)c4)c4ccsc4c3-c3c(F)cc(F)cc3OCCOC)cc2[C@H]1C [Compound 1131] |  |  | D (percent of modification <25%) | > 1 |  |
| C=CC(=O)N1Cc2cc(-c3nc(-c4cnnc(OCCN(C)C)c4)c4ccsc4c3-c3c(F)cc(F)cc3OCCOC)nn2C[C@H]1C [Compound 884] |  | < 0.1 | A (percent of modification of PIK3CA protein ≥75%) |  |  |
| C=CC(=O)N1CCn2nc(-c3nc(-c4ccc5cnncc5c4)c4ccsc4c3-c3c(F)cc(F)cc3OCC(C)O)cc2C1C (centres unmarked) [Compound 678] | A (percent of modification of PIK3CA protein ≥75%) | < 0.1 |  |  |  |
| C=CC(=O)N1CCc2nc(-c3nc(-c4cnn(CCO)c4)c4ccsc4c3-c3ccc(F)cc3OCCOC)sc2C1 [Compound 126] | A (percent of modification of PIK3CA protein ≥75%) | < 0.1 |  |  |  |
| C=CC(=O)N1Cc2cc(-c3nc(-c4cnn(C)c4)c4ccsc4c3-c3c(F)cc(F)cc3OCCOC)nn2C[C@H]1C [Compound 578] | D (percent of modification <25%) | 1 to 3 |  |  |  |
| C=CC(=O)N1CCc2ncc(-c3nc(-c4ccc5c(c4)CN(CCOC)CC5(F)F)c4ccsc4c3-c3c(F)cc(F)cc3OCCOC)cc2C1 [Compound 1278] |  |  | A (percent of modification of PIK3CA protein ≥75%) | < 0.1 |  |
| C=CC(=O)N1CCn2nc(-c3nc(-c4cncc(Cl)c4)c4ccsc4c3-c3ccc(F)cc3OCCOC)cc2C1 [Compound 203] | A (percent of modification of PIK3CA protein ≥75%) | < 0.1 |  |  |  |
| C=CC(=O)N1CCc2nc(-c3nc(-c4cnn(C)c4)c4ccsc4c3-c3ccc(F)cc3OCC3CNC(=O)C3)sc2C1 (centres unmarked) [Compound 187] | A (percent of modification of PIK3CA protein ≥75%) | < 0.1 |  |  |  |
| C=CC(=O)N1CCc2ccc(-c3nc(-c4ccc5c(c4)CNC(=O)C54CC4)c4ccsc4c3-c3c(F)cc(F)cc3OCCOC)cc2C1 [Compound 1191] |  |  | A (percent of modification of PIK3CA protein ≥75%) | < 0.1 |  |
